Assay results taken from PubChem BioAssay AID2060493 (Molecular Pharmacology Branch, DTP, NCI, 2025).
Several values for one entry are separate records, joined by “and”; a condition that tells them apart may be missing. Identical values can stand only once.

Tested on: 616215-338-R-J1-PDC tumor spheroids, viability
Assay: Anticancer human tumor 616215-338-R-J1-PDC patient-derived colon adenocarcinoma cell line growth inhibition [GQUAD]
Settings: spheroids with HUVEC and MSC; for viability, T/C: stronger effect = lower value
Summary of the method: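 Multi-cell-type spheroids of tumor cells with HUVEC and mesenchymal stem cells, treated with drug combinations. Concentrations descend in half-log steps from near clinical Cmax, or from 10 microM where Cmax is unknown; viability read-out.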

[1] = curve of first compound, second compound 0.0316 µM
[2] = curve of first compound, second compound 0.1 µM
[3] = curve of first compound, second compound 0.316 µM
[4] = curve of first compound, second compound 1 µM
[5] = curve of first compound, second compound 3.16 µM
[6] = curve of first compound, second compound 10 µM
[7] = second compound 0.0316 µM, first compound 0.0316 µM
[8] = second compound 0.0316 µM, first compound 0.1 µM
[9] = second compound 0.0316 µM, first compound 0.316 µM
[10] = second compound 0.0316 µM, first compound 1 µM
[11] = second compound 0.0316 µM, first compound 3.16 µM
[12] = second compound 0.0316 µM, first compound 10 µM
[13] = second compound 0.1 µM, first compound 0.0316 µM
[14] = second compound 0.1 µM, first compound 0.1 µM
[15] = second compound 0.1 µM, first compound 0.316 µM
[16] = second compound 0.1 µM, first compound 1 µM
[17] = second compound 0.1 µM, first compound 3.16 µM
[18] = second compound 0.1 µM, first compound 10 µM
[19] = second compound 0.316 µM, first compound 0.0316 µM
[20] = second compound 0.316 µM, first compound 0.1 µM
[21] = second compound 0.316 µM, first compound 0.316 µM
[22] = second compound 0.316 µM, first compound 1 µM
[23] = second compound 0.316 µM, first compound 3.16 µM
[24] = second compound 0.316 µM, first compound 10 µM
[25] = second compound 1 µM, first compound 0.0316 µM
[26] = second compound 1 µM, first compound 0.1 µM
[27] = second compound 1 µM, first compound 0.316 µM
[28] = second compound 1 µM, first compound 1 µM
[29] = second compound 1 µM, first compound 3.16 µM
[30] = second compound 1 µM, first compound 10 µM
[31] = second compound 3.16 µM, first compound 0.0316 µM
[32] = second compound 3.16 µM, first compound 0.1 µM
[33] = second compound 3.16 µM, first compound 0.316 µM
[34] = second compound 3.16 µM, first compound 1 µM
[35] = second compound 3.16 µM, first compound 3.16 µM
[36] = second compound 3.16 µM, first compound 10 µM
[37] = second compound 10 µM, first compound 0.0316 µM
[38] = second compound 10 µM, first compound 0.1 µM
[39] = second compound 10 µM, first compound 0.316 µM
[40] = second compound 10 µM, first compound 1 µM
[41] = second compound 10 µM, first compound 3.16 µM
[42] = second compound 10 µM, first compound 10 µM
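Also: spheroids exposed to agents for 7 days before readout.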
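For viability, T/C in this document: percent viability relative to DMSO vehicle control wells taken as 100%.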

For `Nc1ccn(C2OC(CO)C(O)C2(F)F)c(=O)n1` (stereo not drawn) + CN(C)c1ccc(Nc2c3ccc(NC(=O)CCN4CCCC4)cc3nc3cc(NC(=O)CCN4CCCC4)ccc23)cc1, the IC50 [1] was less than 31.6 nM, the IC50 [2] was less than 31.6 nM and the IC50 [3] was less than 31.6 nM. The IC50 [4] was less than 31.6 nM, the IC50 [5] was less than 31.6 nM and the IC50 [6] was less than 31.6 nM. The viability, T/C [7] was 39.4%, the viability, T/C [8] was 18.3% and the viability, T/C [9] was 11.6%. For the same compound, the viability, T/C [10] was 9.94%, the viability, T/C [11] was 10.2% and the viability, T/C [12] was 11.1%. For the same compound, the viability, T/C [13] was 39.2%, the viability, T/C [14] was 14.7% and the viability, T/C [15] was 12%. It also gave a viability, T/C [16] of 9.37%, a viability, T/C [17] of 10.9% and a viability, T/C [18] of 8.91%. The viability, T/C [19] was 43.8%, the viability, T/C [20] was 20.2% and the viability, T/C [21] was 11.3%. The viability, T/C [22] was 7.36%, the viability, T/C [23] was 8.69% and the viability, T/C [24] was 10.9%. The viability, T/C [25] was 34.6%, the viability, T/C [26] was 19.2% and the viability, T/C [27] was 9.69%. For the same compound, the viability, T/C [28] was 9.64%, the viability, T/C [29] was 11.7% and the viability, T/C [30] was 14.1%. For the same compound, the viability, T/C [31] was 45.3%, the viability, T/C [32] was 26% and the viability, T/C [33] was 12.3%. For the same compound, the viability, T/C [34] was 8.37%, the viability, T/C [35] was 11.2% and the viability, T/C [36] was 9.17%. The viability, T/C [37] was 30.2%, the viability, T/C [38] was 19.6% and the viability, T/C [39] was 7.93%. It also gave a viability, T/C [40] of 6.14%, a viability, T/C [41] of 8.89% and a viability, T/C [42] of 8.2%.

`Cn1ncnc1[C@H]1c2n[nH]c(=O)c3cc(F)cc(c23)N[C@@H]1c1ccc(F)cc1` was tested, and the viability, T/C (compound 0.000999 µM) was 101% and 92.4% and 96.4%, the viability, T/C (compound 0.00316 µM) was 90.2% and 96.7% and 93.7% and the viability, T/C (compound 0.00999 µM) was 104% and 101% and 99.2%. For the same compound, the viability, T/C (compound 0.0316 µM) was 88.4% and 99.1% and 102%, the viability, T/C (compound 0.0999 µM) was 106% and 100% (2×) and the viability, T/C (compound 0.316 µM) was 99% and 97.3% and 99.4%. The IC50 (curve of compound) was greater than 316 nM.

Work on `CC(C)n1c(=O)n(C)c2cnc3cc(F)c(-c4ccc(OCCCN5CCCCC5)nc4)cc3c21` + CN(C)c1ccc(Nc2c3ccc(NC(=O)CCN4CCCC4)cc3nc3cc(NC(=O)CCN4CCCC4)ccc23)cc1 yielded an IC50 [1] greater than 10000 nM, an IC50 [2] greater than 10000 nM and an IC50 [3] greater than 10000 nM. For the same compound, the IC50 [4] was greater than 10000 nM, the IC50 [5] was 9930 nM and the IC50 [6] was 3090 nM. It also gave a viability, T/C [7] of 110%, a viability, T/C [8] of 112% and a viability, T/C [9] of 96.3%. The viability, T/C [10] was 109%, the viability, T/C [11] was 105% and the viability, T/C [12] was 62.2%. It also gave a viability, T/C [13] of 110%, a viability, T/C [14] of 104% and a viability, T/C [15] of 101%. For the same compound, the viability, T/C [16] was 111%, the viability, T/C [17] was 103% and the viability, T/C [18] was 81.1%. It also gave a viability, T/C [19] of 97.2%, a viability, T/C [20] of 99.7% and a viability, T/C [21] of 97.8%. The viability, T/C [22] was 103%, the viability, T/C [23] was 121% and the viability, T/C [24] was 95.7%. For the same compound, the viability, T/C [25] was 101%, the viability, T/C [26] was 97.2% and the viability, T/C [27] was 103%. It also gave a viability, T/C [28] of 97.9%, a viability, T/C [29] of 111% and a viability, T/C [30] of 83.5%. The viability, T/C [31] was 105%, the viability, T/C [32] was 101% and the viability, T/C [33] was 101%. The viability, T/C [34] was 91.9%, the viability, T/C [35] was 100% and the viability, T/C [36] was 49.6%. It also gave a viability, T/C [37] of 95.8%, a viability, T/C [38] of 77.1% and a viability, T/C [39] of 55.6%. The viability, T/C [40] was 64.6%, the viability, T/C [41] was 61.6% and the viability, T/C [42] was 7.08%.

`Cc1[nH]c2ccccc2c1CCNCc1ccc(/C=C/C(=O)NO)cc1` + Cc1[nH]c2ccc(F)cc2c1-c1nc2c3cccnc3c3ncccc3c2[nH]1 gave an IC50 [1] of 145 nM, an IC50 [2] of 178 nM and an IC50 [3] of 162 nM. It also gave an IC50 [4] of 131 nM, an IC50 [5] of 132 nM and an IC50 [6] of 125 nM. For the same compound, the viability, T/C (second compound 0.0316 µM, first compound 0.000999 µM) was 110%, the viability, T/C (second compound 0.0316 µM, first compound 0.00316 µM) was 98.6% and the viability, T/C (second compound 0.0316 µM, first compound 0.00999 µM) was 95.8%. It also gave a viability, T/C [7] of 108%, a viability, T/C (second compound 0.0316 µM, first compound 0.0999 µM) of 67.6% and a viability, T/C [9] of 13.2%. The viability, T/C (second compound 0.1 µM, first compound 0.000999 µM) was 93.6%, the viability, T/C (second compound 0.1 µM, first compound 0.00316 µM) was 96.6% and the viability, T/C (second compound 0.1 µM, first compound 0.00999 µM) was 94.4%. The viability, T/C [13] was 97%, the viability, T/C (second compound 0.1 µM, first compound 0.0999 µM) was 89.6% and the viability, T/C [15] was 10.9%. The viability, T/C (second compound 0.316 µM, first compound 0.000999 µM) was 99.5%, the viability, T/C (second compound 0.316 µM, first compound 0.00316 µM) was 109% and the viability, T/C (second compound 0.316 µM, first compound 0.00999 µM) was 104%. It also gave a viability, T/C [19] of 97.9%, a viability, T/C (second compound 0.316 µM, first compound 0.0999 µM) of 79.8% and a viability, T/C [21] of 9.21%. For the same compound, the viability, T/C (second compound 1 µM, first compound 0.000999 µM) was 102%, the viability, T/C (second compound 1 µM, first compound 0.00316 µM) was 98.5% and the viability, T/C (second compound 1 µM, first compound 0.00999 µM) was 93.1%. It also gave a viability, T/C [25] of 101%, a viability, T/C (second compound 1 µM, first compound 0.0999 µM) of 62% and a viability, T/C [27] of 10.9%. It also gave a viability, T/C (second compound 3.16 µM, first compound 0.000999 µM) of 98%, a viability, T/C (second compound 3.16 µM, first compound 0.00316 µM) of 92.6% and a viability, T/C (second compound 3.16 µM, first compound 0.00999 µM) of 100%. It also gave a viability, T/C [31] of 94%, a viability, T/C (second compound 3.16 µM, first compound 0.0999 µM) of 62.7% and a viability, T/C [33] of 10.8%. The viability, T/C (second compound 10 µM, first compound 0.000999 µM) was 99.7%, the viability, T/C (second compound 10 µM, first compound 0.00316 µM) was 99.5% and the viability, T/C (second compound 10 µM, first compound 0.00999 µM) was 103%. It also gave a viability, T/C [37] of 95.1%, a viability, T/C (second compound 10 µM, first compound 0.0999 µM) of 59.9% and a viability, T/C [39] of 8.56%.

In the case of `Cc1cnc(CNC(=O)c2c(=O)c3ccc(N4CCCN(C)CC4)nc3n3c2sc2ccccc23)cn1`, the viability, T/C (compound 0.0316 µM) is reported as 104% [middle of 12 runs], the viability, T/C (compound 3.16 µM) is reported as 31.6% [middle of 12 runs] and the viability, T/C (compound 10 µM) is reported as 25.1% [middle of 12 runs].

For `Nc1ccn(C2OC(CO)C(O)C2(F)F)c(=O)n1` (stereo not drawn), the viability, T/C (compound 0.0316 µM) was 53.3% and 42.5% and 53%, the viability, T/C (compound 0.1 µM) was 21.3% and 23.8% and 25.2% and the viability, T/C (compound 0.316 µM) was 16.9% and 9.13% and 18.7%. For the same compound, the viability, T/C (compound 1 µM) was 17.8% and 10.8% and 15.7%, the viability, T/C (compound 3.16 µM) was 14% and 12.8% and 17.5% and the viability, T/C (compound 10 µM) was 17.1% and 11.2% and 17.3%. The IC50 (curve of compound) was 35.6 nM and < 31.6 nM and 35.8 nM.
